{"source": "patent US20250161422A1", "about": "“ARGINASE 2 VACCINE” (IO Biotech ApS, priority 2022, published 2025)", "key": {"[1]": {"system": "PBMCs from healthy donors or cancer patients", "assay": "In vitro peptide stimulation of PBMCs and IFNγ ELISPOT", "assay_type": "cell-based, human", "details": "for IFNγ ELISPOT response, screening: PBMCs of five healthy HLA-A2+ donors, restimulated after 12-14 days; for IFNγ ELISPOT response, validation (repetition): healthy donors, repeat ELISPOT (FIG. 5); for IFNγ ELISPOT response in 17 HDs: 17 healthy donors of undetermined HLA-type", "protocol": "PBMCs from healthy donors or cancer patients were subjected to in vitro stimulation with ARG2-derived peptides by plating the cells with 10 μM peptide. The following day, the cells received low-dose IL-2 (120 U/ml) treatment. At 10-14 days after peptide stimulation, the cells were used for IFNγ ELISPOT. ELISPOT plates were coated with […] IFNγ capture antibody (MabTech) overnight. The next day, the plates were washed and blocked in X-vivo media followed by the plating of 2.5-3.5×10^5 PBMCs per well for ELISPOT, with and without restimulation with 5 μM peptide. A minimum of triplicate wells were set up pr. condition. The cells were incubated 14-16 hours before they were washed and a biotin-conjugated secondary antibody (Mabtech) was added, followed by a 2-hour incubation. Next, the cells were washed again, followed by incubation with streptavidin-conjugated alkaline phosphatase (Mabtech) for 1 hour. Finally, spots were developed by addition of BCIP/NBT substrate (Mabtech). Tap water was used to stop the reaction. Spots corresponding to IFNγ secretion were quantified by visualization on a CTL ImmunoSpot S6 Ultimate-V analyzer with ImmunoSpot software version 5.1. Peptide-specific IFNγ secreting cells were calculated by subtracting the average spot count in control wells from the average spot count in peptide-stimulated wells. […] Peptide pulsing was performed by incubating the target cells with 20 μM peptide for 1 hour, followed by two washes to remove unbound peptide. Effector cells with added peptide served as the positive control and […] plated without […] as the negative control. In ELISPOTs assays with immune cells as target cells, wells containing only effector cells were also included as controls. The average spot count from replicate wells was subtracted from the spot count of effector cells plated with the respective target cells. These 15 peptides ([…] to […]) were screened in peripheral blood mononuclear cells (PBMCs) from five healthy donors (HD), who were confirmed to be HLA-A2 positive (HLA-A2^+). PBMCs were stimulated with each peptide in vitro and restimulated in IFNγ ELISPOT after 12-14 days of culture."}, "[2]": {"system": "HLA-A1+, HLA-C7+ or HLA-B8+ cancer cell lines (FM6, FM28, FM82, OCI-M2)", "assay": "IFNγ ELISPOT of A2S05-specific T cells with peptide-pulsed cancer cell lines", "assay_type": "cell-based, human", "details": "for IFNγ ELISPOT reactivity of A2S05-specific T cells to peptide-pulsed HLA-B8+ FM6: metastatic malignant melanoma cell line FM6", "protocol": "Peptide-specific IFNγ secreting cells were calculated by subtracting the average spot count in control wells from the average spot count in peptide-stimulated wells. ELISPOT assays with ARG2-specific T cells (effector cells) and various immune cells or cancer cells as target cells were set up by adding 3×10^4-5×10^4 effector cells to ELISPOT wells followed by 5×10^3-10^4 target cells. Peptide pulsing was performed by incubating the target cells with 20 μM peptide for 1 hour, followed by two washes to remove unbound peptide. Effector cells with added peptide served as the positive control and target cells plated without […] as the negative control. In ELISPOTs assays with immune cells as target cells, wells containing only effector cells were also included as controls. The average spot count from replicate wells was subtracted from the spot count of effector cells plated with the respective target cells.\n(§1) ARG2-specific T-cell cultures were obtained by stimulation of PBMCs with ARG2-S05 peptide, followed by low-dose IL-2 (120 U/mL) the next day. At 12 days after peptide stimulation, the cells were re-stimulated with peptide, and IFNγ-secreting cells were isolated using magnetic beads. Next, these cells were expanded using a rapid expansion protocol, including feeder cells, CD3 antibody, and high-dose IL-2 (3000-6000 U/mL). On day 16-17, culture specificity was determined by stimulation with ARG2-S05 peptide and determination of the cytokine release by ICS.\nFM6 was confirmed to be HLA-B8^+ by flow cytometry and confirmed to express ARG2 by RT-qPCR (FIG. 6)."}, "[3]": {"system": "PBMCs / peptide-specific T-cell cultures", "assay": "Intracellular cytokine staining for TNFα and IFNγ", "assay_type": "cell-based, human", "details": "for T-cell subset that responds (ICS for TNFα and IFNγ): peptide-stimulated healthy donor PBMCs", "protocol": "PBMCs were in vitro stimulated with peptide as described above. At 10-14 days post-simulation, the cells were used for intracellular cytokine staining. […] After a 4-hour incubation period, the cells were washed and stained for the extracellular markers CD3-APC/H7, CD4-FITC, and CD8-PerCP, and dead cells were stained with FVS-510. Next, the cells were permeabilized using Fixation/Permeabilization buffer (Invitrogen), followed by staining with IFNγ-APC and TNFα-BV421. Data were acquired using a BD Canto II flow cytometer and analyzed using FlowJo.\nas §1\nTo further characterize the ARG2-specific CD8^+ T cells, A2S05-specific T-cell cultures from four donors were established. Briefly, donor PBMCs were stimulated with A2S05 in vitro. 12 days later, peptide-specific T cells were re-stimulated and isolated using an IFNγ capture kit. IFNγ-producing cells were expanded using a rapid expansion protocol and the specificity was examined at 16-17 days after expansion by ICS for IFNγ and TNF."}, "PBMCs": {"system": "PBMCs", "assay": "Ex vivo IFNγ ELISPOT", "assay_type": "cell-based, human", "details": "donors with strong in vitro responses", "protocol": "PBMCs were thawed and rested overnight. The next day, 9×10^5 cells were plated pr. well. Control and peptide stimulations were performed in at least triplicate. The rest of the protocol was performed as described above."}, "[4]": {"system": "splenocytes of vaccinated mice", "assay": "Murine IFNγ ELISPOT on splenocytes", "assay_type": "in vivo, C57BL/6 mice", "details": "splenocytes of ARG2-vaccinated Pan02 mice plated with ARG1 peptide", "protocol": "The purity of all synthesized peptides was >90%.\nMice were sacrificed at endpoint for tumor studies and one week after the last vaccination for the remaining studies. Spleens were harvested, smashed through a 70 μm filter, and red blood cells were lysed with Red Blood Cell Lysis Solution (Qiagen). 8×10^5 splenocytes were plated per well in IFNγ ELISPOT plates. IFNγ ELISPOT was performed as previously described. Tumors were harvested, cut into smaller pieces and enzymatically digested in RPMI medium containing 2.1 mg/ml collagenase type 1 (Worthington), 75 μg/ml DNase I (Worthington), 5 mM CaCl2, and 1% P/S. Cells were filtered through a 70 μm cell strainer and red blood cells were lysed as described above. CD45+tumor infiltrating lymphocytes (TILs) were isolated from tumor single-cell suspensions with CD45 microbeads (for MC38 and LL2 tumors) (Miltenyi Biotec) or with CD45 (TIL) microbeads (for B16-F10 tumors) (Miltenyi Biotec). The isolated CD45+ cells were rested overnight. 5×10^5 CD45+ cells were plated per well in IFNγ ELISPOT plates. For phenotyping ARG2 responses, CD8+ and CD4^+ T cells were isolated from the spleen of vaccinated mice with CD8a (Ly-2) and CD4 (L3T4) microbeads (Miltenyi Biotec), respectively, following manufacturer's instruction. Isolated T cells were rested overnight. […]"}, "[5]": {"system": "splenocytes of vaccinated mice", "details": "previously identified by the inventors; cited from earlier work"}, "[6]": {"system": "murine model of lung cancer", "details": "previously shown by the inventors; cited from earlier work"}}}
{"sequence": "LLSALDLVEV (listed as Homo sapiens) [A2S15, human ARG2 positions 288-297]", "values": [{"measurement": "IFNγ ELISPOT response, screening", "setting": "[1]", "value": "significant responses in PBMCs from three or more donors"}, {"measurement": "IFNγ ELISPOT response, validation (repetition)", "setting": "[1]", "value": "did not show significant responses"}]}
{"sequence": "NLIVNPRSV (listed as Homo sapiens) [A2S05, human ARG2 positions 84-92]", "values": [{"measurement": "IFNγ ELISPOT reactivity of A2S05-specific T cells to peptide-pulsed HLA-A1+ and HLA-C7+ cell lines", "setting": "[2]; T cells from HD78 and HD93", "value": "no reactivity"}, {"measurement": "IFNγ ELISPOT reactivity of A2S05-specific T cells to additional HLA-B8+ cell lines", "setting": "[2]; all four T-cell cultures, FM28, FM82, OCI-M2", "value": "reactivity against three additional HLA-B8^+ cell lines"}, {"measurement": "IFNγ ELISPOT reactivity of A2S05-specific T cells to peptide-pulsed HLA-B8+ FM6", "setting": "[2]", "value": "recognition and reactivity activity"}, {"measurement": "HLA restriction of the peptide", "setting": "[2]; recognition and cytolytic activity against HLA-B8+ lines", "value": "HLA-B8 restriction"}, {"measurement": "IFNγ ELISPOT response in 17 HDs", "setting": "[1]", "value": "only few responses"}, {"measurement": "donors with statistically significant IFNγ ELISPOT responses", "setting": "[1]; 38 donors with known HLA-A2 status (13 cancer patients, 25 healthy donors)", "value": "10 out of the 38"}, {"measurement": "IFNγ ELISPOT response, screening", "setting": "[1]", "value": "significant responses in PBMCs from three or more donors"}, {"measurement": "IFNγ ELISPOT response, validation (repetition)", "setting": "[1]", "value": "strong IFNγ ELISPOT responses"}, {"measurement": "HLA-A2 restriction from donor responses", "setting": "[1]; responses in both HLA-A2+ and HLA-A2- donors", "value": "not HLA-A2 restricted"}, {"measurement": "specificity of expanded peptide-specific T-cell cultures (ICS for IFNγ and TNF)", "setting": "[3]; four donors, 16-17 days after expansion", "value": "Highly specific CD8+cultures from all four donors"}, {"measurement": "T-cell subset that responds (ICS for TNFα and IFNγ)", "setting": "[3]", "value": "responses were from CD8^+ T-cells"}, {"measurement": "ex vivo IFNγ ELISPOT response", "setting": "PBMCs", "value": "strong and significant responses in PBMCs ex vivo"}]}
{"sequence": "GLLSALDLV (listed as Homo sapiens) [A2S14, human ARG2 positions 287-295]", "values": [{"measurement": "IFNγ ELISPOT response, screening", "setting": "[1]", "value": "significant responses in PBMCs from three or more donors"}, {"measurement": "IFNγ ELISPOT response, validation (repetition)", "setting": "[1]", "value": "strong IFNγ ELISPOT responses"}, {"measurement": "T-cell subset that responds (ICS for TNFα and IFNγ)", "setting": "[3]", "value": "reaction was from CD4^+ T cells"}]}
{"sequence": "ISAKDIVYI (listed as Mus musculus) [mARG1_169-177, murine ARG1 peptide from the corresponding region, control for specific recognition]", "values": [{"measurement": "cross-reactivity of vaccine-induced responses to ARG1 peptide", "setting": "[4]", "value": "no cross-reactivity"}]}
{"sequence": "QIVKNPRSV (listed as Homo sapiens) [ARG1_65-73, reference compound]", "values": [{"measurement": "IFNγ ELISPOT reactivity of A2S05-specific T cells to peptide-pulsed HLA-B8+ FM6", "setting": "[2]", "value": "lack of reactivity"}]}
{"sequence": "LSPPNIVYI (listed as Mus musculus) [mARG2_188-196]", "values": [{"measurement": "T-cell responses upon a single vaccination", "setting": "[5]", "value": "strong and frequent T-cell responses"}, {"measurement": "tumor growth in murine model of lung cancer", "setting": "[6]", "value": "induced tumor growth delay"}]}
{"sequence": "SLRGSLSRLLQTRVHSILKKSVHSVAVIGAPFS (listed as Homo sapiens) [A2L2, reference compound]", "values": [{"measurement": "IFNγ ELISPOT response in 17 HDs", "setting": "[1]", "value": "Strong and frequent responses"}]}
